Test results as given in patent publication US10251819B2, “Amphiphilic polymer” (LG Chem, Ltd., priority 2015, dated 2019).

Assay: Percutaneous absorption test of genistein-loaded amphiphilic polymer solution, Franz diffusion cell
Type: in vitro ADME, porcine
Method: The percutaneous absorption of genistein of the amphiphilic polymer solution in which genistein was loaded and which was prepared as above was evaluated using porcine skin (2×2 cm, thickness: 1000 μm) and a Franz diffusion cell (FIG. 2). A phosphate buffered saline (PBS) solution containing 30 wt % of dipropylene glycol (DPG) was used as an aqueous solution (acceptor solution) to maintain a sink condition with respect to genistein. 0.2 g of the amphiphilic polymer solution on which genistein was loaded was loaded in a Franz diffusion cell on which the porcine skin was mounted, and the test was performed at 32° C. similar to a skin temperature for 24 hours. Skin tissue into which genistein was absorbed was pulverized and extracted to analyze the content of genistein absorbed into the skin tissue and the content of genistein absorbed into the acceptor solution through HPLC, and the results are shown in Table 3.

Skin penetration amount: 0.15 μg/cm^2
Skin penetration ratio: 0.09%
Substance: polycaprolactone (B)-polyethylene glycol (A)-polycaprolactone (B) copolymer [Comparative Example 1]
